Reference: the supplement of paper PMC6045584
± gives the standard deviation of the averaged measurements.

Legend:
VINORELBINE = compound: CCC1=C[C@@H]2CN(C1)Cc1c([nH]c3ccccc13)[C@@](C(=O)OC)(c1cc3c(cc1OC)N(C)[C@H]1[C@@](O)(C(=O)OC)[C@H](OC(C)=O)[C@]4(CC)C=CCN5CC[C@]31[C@@H]54)C2 [VINORELBINE]; assay: surviving fraction relative to DMSO-only wells; higher = less growth inhibition; details: exposure time: 5 days
In short: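 Inhibitors at 0.5, 1, 5, 10, 50, 100, 500 and 1000 nM were applied continuously for five days to tumour cell lines seeded in log phase at 250–500 cells per well in 384-well plates 24 hours earlier. Viability was measured by CellTiter-Glo luminescence and expressed as surviving fraction relative to the median of DMSO-only wells. Luminescence was taken after 10 minutes at room temperature.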

PLX-4720 = compound: CCCS(=O)(=O)Nc1ccc(F)c(C(=O)c2c[nH]c3ncc(Cl)cc23)c1F [PLX-4720]; assay: area under dose-response curve of surviving fraction (unscaled, Aref=0) (surviving fraction x log10(nM)); higher = more resistant; details: exposure time: 5 days; dose range 0.5-1000 nM
In short: (§1)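 Each tumour cell line was screened three times in 384-well plates, receiving eight inhibitor concentrations from 0.5 to 1000 nM for five days. CellTiter-Glo luminescence gave viability, normalised to DMSO-only wells. Using the drc R package, surviving fractions were fitted with 3-parameter logistic dose-response curves, and the unscaled activity area over log10 dose (Aref = 0) was taken as the area under the curve.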

EVEROLIMUS = compound: CO[C@H]1C[C@@H]2CC[C@@H](C)[C@@](O)(O2)C(=O)C(=O)N2CCCC[C@H]2C(=O)O[C@H]([C@H](C)C[C@@H]2CC[C@@H](OCCO)[C@H](OC)C2)CC(=O)[C@H](C)/C=C(\C)[C@@H](O)[C@@H](OC)C(=O)[C@H](C)C[C@H](C)/C=C/C=C/C=C/1C [EVEROLIMUS]; assay: as above; details: exposure time: 5 days; dose range 0.5-1000 nM
In short: as §1

AZD4547 = compound: COc1cc(CCc2cc(NC(=O)c3ccc(N4CC(C)NC(C)C4)cc3)n[nH]2)cc(OC)c1 [AZD4547]; assay: as above; details: exposure time: 5 days; dose range 0.5-1000 nM
In short: as §1

SUNITINIB = compound: CCN(CC)CCNC(=O)c1c(C)[nH]c(/C=C2\C(=O)Nc3ccc(F)cc32)c1C [SUNITINIB]; assay: as above; details: exposure time: 5 days; dose range 0.5-1000 nM
In short: as §1

MK2206 = compound: NC1(c2ccc(-c3nc4ccn5c(=O)[nH]nc5c4cc3-c3ccccc3)cc2)CCC1 [MK2206]; assay: as above; details: exposure time: 5 days; dose range 0.5-1000 nM
In short: as §1

ETOPOSIDE = compound: COc1cc([C@@H]2c3cc4c(cc3[C@@H](O[C@@H]3O[C@@H]5CO[C@@H](C)O[C@H]5[C@H](O)[C@H]3O)[C@H]3COC(=O)[C@H]23)OCO4)cc(OC)c1O [ETOPOSIDE]; assay: as above; details: exposure time: 5 days; dose range 0.5-1000 nM
In short: as §1

MK0752 = compound: O=C(O)CC[C@H]1CC[C@@](c2cc(F)ccc2F)(S(=O)(=O)c2ccc(Cl)cc2)CC1 [MK0752]; assay: as above; details: exposure time: 5 days; dose range 0.5-1000 nM
In short: as §1

Test System | surviving fraction (VINORELBINE; 0.5 nM) | surviving fraction (VINORELBINE; 1 nM) | surviving fraction (VINORELBINE; 5 nM) | surviving fraction (VINORELBINE; 10 nM) | surviving fraction (VINORELBINE; 50 nM) | surviving fraction (VINORELBINE; 100 nM) | surviving fraction (VINORELBINE; 500 nM) | surviving fraction (VINORELBINE; 1000 nM) | area under dose-response curve (PLX-4720) | area under dose-response curve (EVEROLIMUS) | area under dose-response curve (AZD4547) | area under dose-response curve (SUNITINIB) | area under dose-response curve (MK2206) | area under dose-response curve (ETOPOSIDE) | area under dose-response curve (MK0752)
HUO3N1 BONE | 1.01 ± 0.032 | 1.02 ± 0.012 | 1.03 ± 0.039 | 0.935 ± 0.017 | 0.308 ± 0.039 | 0.182 ± 0.025 | 0.183 ± 0.0055 | 0.179 ± 0.018 | 3.12 | 2.1 | 2.9 | 2.62 | 2.94 | 2.97 | –
CAL72 BONE | 1.04 ± 0.036 | 1.05 ± 0.036 | 1 ± 0.024 | 0.9417 ± 0.0083 | 0.43 ± 0.056 | 0.34 ± 0.05 | 0.213 ± 0.018 | 0.213 ± 0.026 | 3.44 | 2.27 | 1.94 | – | 3.66 | 3.1 | 3.63
LNCAP PROSTATE | 0.816 ± 0.12 | 0.843 ± 0.12 | 0.667 ± 0.038 | 0.458 ± 0.056 | 0.06 ± 0.0053 | 0.054 ± 0.0044 | 0.058 ± 0.001 | 0.0507 ± 0.0083 | 3.17 | 1.21 | 2.84 | – | 2.02 | 2.68 | 3.22
G292 BONE | 0.962 ± 0.012 | 1.01 ± 0.045 | 0.704 ± 0.0075 | 0.416 ± 0.013 | 0.221 ± 0.02 | 0.189 ± 0.0081 | 0.144 ± 0.013 | 0.105 ± 0.011 | 3.19 | 1.68 | 1.58 | 2.82 | 2.96 | 2.76 | 3.19
SCC003 HEADNECK | 1.02 ± 0.16 | 1.08 ± 0.067 | 0.967 ± 0.13 | 0.862 ± 0.064 | 0.271 ± 0.039 | 0.256 ± 0.02 | 0.34 ± 0.045 | 0.311 ± 0.036 | 2.97 | – | – | 2.83 | – | – | –
C33A CERVIX | 1.02 ± 0.15 | 1.02 ± 0.1 | 1.03 ± 0.11 | 0.78 ± 0.04 | 0.121 ± 0.0098 | 0.102 ± 0.028 | 0.0543 ± 0.026 | 0.0423 ± 0.0078 | – | 1.43 | 3.03 | – | 3.12 | 2.61 | 3.7
